Measurements from patent publication US6506772B1, “Substituted [1,2,4]triazolo[1,5a]pyridine derivatives with activity as adenosine receptor ligands” (Hoffmann-La Roche Inc., priority 2000, dated 2003).
Read-outs that look alike come from different tables or passages of the source.

How the values were obtained:
[1] = molecular target: T1, human adenosine A2A receptor (Homo sapiens, UniProt P29274); experiment: Human adenosine A2A receptor [3H]-SCH-58261 binding assay
T1 construct: expressed in transfected cells; host or cells: CHO cells, Semliki Forest virus expression system; membrane preparation
Description: Human Adenosine A2A Receptor
The human adenosine A2A receptor was recombinantly expressed in chinese hamster ovary (CHO) cells using the semliki forest virus expression system. Cells were harvested, washed twice by centrifugation, homogenized and again washed by centrifugation. The final washed membrane pellet was suspended in a Tris (50 mM) buffer containing 120 mM NaCl, 5 mM KCl, 2 mM CaCl2 and 10 MM MgCl2 (pH 7.4) (buffer A). […] Compounds were tested at 10 concentrations from 10 μM-0.3 nM. All assays were conducted in duplicate and repeated at least two times. Assay plates were incubated for 1 hour at room temperature before centrifugation and then bound ligand determined using a Packard Topcount scintillation counter. IC50 values were calculated using a non-linear curve fitting program and Ki values calculated using the Cheng-Prussoff equation.

[2] = molecular target: T2, HA1 adenosine receptor (Homo sapiens, UniProt P30542); experiment: Human adenosine A1 receptor affinity (Ki hA1); assay type: binding
T2 sequence (P30542 1-326): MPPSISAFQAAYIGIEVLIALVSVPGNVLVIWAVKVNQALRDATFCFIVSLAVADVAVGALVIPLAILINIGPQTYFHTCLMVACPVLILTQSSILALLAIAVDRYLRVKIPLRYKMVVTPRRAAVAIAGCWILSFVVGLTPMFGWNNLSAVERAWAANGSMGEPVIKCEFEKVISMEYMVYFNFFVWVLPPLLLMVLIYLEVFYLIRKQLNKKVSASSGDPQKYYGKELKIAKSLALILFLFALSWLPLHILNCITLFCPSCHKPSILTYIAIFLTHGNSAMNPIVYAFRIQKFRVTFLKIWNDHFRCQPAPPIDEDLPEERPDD

[3] = affinity to human adenosine A2A receptor, read-out: Ki HA2A
[4] = calculated ratio of the affinity to the HA1 receptor to the HA2a receptor
[5] = affinity to human adenosine A1 receptor
[6] = recombinant human A2A in CHO cell membranes, [3H]-SCH-58261, Cheng-Prussoff, read-out: Ki hA2A

T1 sequence (P29274 whole entry): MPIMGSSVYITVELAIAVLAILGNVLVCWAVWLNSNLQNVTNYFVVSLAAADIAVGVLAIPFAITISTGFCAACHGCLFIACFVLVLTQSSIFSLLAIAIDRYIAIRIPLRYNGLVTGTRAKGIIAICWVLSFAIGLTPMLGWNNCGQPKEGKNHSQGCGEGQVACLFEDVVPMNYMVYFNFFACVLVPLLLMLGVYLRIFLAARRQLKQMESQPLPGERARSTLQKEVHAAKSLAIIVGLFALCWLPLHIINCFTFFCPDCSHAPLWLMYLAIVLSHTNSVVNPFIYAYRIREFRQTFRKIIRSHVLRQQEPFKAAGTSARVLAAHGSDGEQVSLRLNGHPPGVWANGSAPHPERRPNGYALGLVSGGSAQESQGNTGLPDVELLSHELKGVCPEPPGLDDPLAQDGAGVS

Row | SMILES | Ki [1, 3] [nM] | selectivity (A1/A2a) [1, 4] | Ki [2, 5] [nM] | further results
1 | CN(Cc1ccccc1)C(=O)c1cc(N)n2nc(-c3ccoc3)nc2c1 [Example 226, 5-Amino-2-furan-3-yl-[1,2,4]triazolo[1,5-a]pyridine-7-carboxylic acid benzyl-methyl-amide] | 121 | 8.4 | 1010 | –
2 | Nc1cc(C(=O)N2CCN(Cc3ccccc3)CC2)cc2nc(-c3ccc(Br)o3)nn12 [Example 310, [5-Amino-2-(5-bromo-furan-2-yl)-[1,2,4]triazolo[1,5-a]pyridin-7-yl]-(4-benzyl-piperazin-1-yl)-methanone] | 148 | 2.1 | 314 | –
3 | NC(=O)[C@@H]1CCCN1C(=O)c1cc(N)n2nc(-c3ccc(Br)o3)nc2c1 [Example 388, 1-[5-Amino-2-(5-bromo-furan-2-yl)-[1,2,4]triazolo[1,5-a]pyridine-7-carbonyl]-L-pyrrolidine-2-carboxylic acid amide] | – | – | – | selectivity (A1/A2a) ([1]; ratio KiHA1 divided by KiHA2A): 12.4; Ki [1, 6]: 26.7 nM; Ki [2]: 330 nM
4 | Nc1cc(C(=O)NC2CCC2)cc2nc(-c3cccnc3)nn12 [Example 81, 5-Amino-2-pyridin-3-yl-[1,2,4]triazolo[1,5-a]pyridine-7-carboxylic acid cyclobutylamide] | 315 | 13.9 | 4390 | –
5 | Nc1cc(C(=O)N2CCc3c([nH]c4ccccc34)C2)cc2nc(-c3ccc(Br)o3)nn12 [Example 355, [5-Amino-2-(5-bromo-furan-2-yl)-[1,2,4]triazolo[1,5-a]pyridin-7-yl]-(1,3,4,9-tetrahydro-b-carbolin-2-yl)-methanone] | 47 | 6.1 | 286 | –
6 | Nc1cc(C(=O)N2CCCCC2)cc2nc(-c3ccc(Cl)o3)nn12 [Example 236, [5-Amino-2-(5-chloro-furan-2-yl)-[1,2,4]triazolo[1,5-a]pyridin-7-yl]-piperidin-1-yl-methanone] | 9.2 | 35.2 | 325 | –
7 | CCCCN(Cc1ccccc1)C(=O)c1cc(N)n2nc(-c3ccccn3)nc2c1 [Example 36, 5-Amino-2-pyridin-2-yl-[1,2,4]triazolo[1,5-a]pyridine-7-carboxylic acid benzyl-butyl-amide] | 13.1 | 15.2 | 199 | –
8 | Nc1cc(C(=O)N2CCCC2)cc2nc(-c3cc(Br)co3)nn12 [Example 170, [5-Amino-2-(4-bromo-furan-2-yl)-[1,2,4]triazolo[1,5-a]pyridin-7-yl]-pyrrolidin-1-yl-methanone] | 33.8 | 4.5 | 152 | –
9 | CCN(CCOC)C(=O)c1cc(N)n2nc(-c3nccs3)nc2c1 [Example 498, 5-Amino-2-thiazol-2-yl-[1,2,4]triazolo[1,5-a]pyridine-7-carboxylic acid ethyl-(2-methoxy-ethyl)-amide] | – | – | – | selectivity (A1/A2a) ([1]; ratio KiHA1 divided by KiHA2A): 21; Ki [1, 6]: 190 nM; Ki [2]: 3990 nM
10 | Nc1cc(C(=O)NCc2ccc(F)cc2)cc2nc(-c3ccc(Cl)o3)nn12 [Example 245, 5-Amino-2-(5-chloro-furan-2-yl)-[1,2,4]triazolo[1,5-a]pyridine-7-carboxylic acid 4-fluoro-benzylamide] | 155 | 1.9 | 289 | –
11 | Nc1cc(C(=O)NC2CCCCC2)cc2nc(-c3nccs3)nn12 [Example 123, 5-Amino-2-thiazol-2-yl-[1,2,4]triazolo[1,5-a]pyridine-7-carboxylic acid cyclohexylamide] | 43.5 | 16.0 | 698 | –
12 | Nc1cc(C(=O)N2CC=CCC2)cc2nc(-c3ccc(Br)o3)nn12 [Example 294, [5-Amino-2-(5-bromo-furan-2-yl)-[1,2,4]triazolo[1,5-a]pyridin-7-yl]-(3,6-dihydro-2H-pyridin-1-yl)-methanone] | 4.1 | 35.0 | 143 | –
13 | CCCN(CCC)C(=O)c1cc(N)n2nc(-c3nccs3)nc2c1 [Example 331, 5-Amino-2-thiazol-2-yl-[1,2,4]triazolo[1,5-a]pyridine-7-carboxylic acid dipropylamide] | 87.5 | 30.9 | 2700 | –
14 | COc1ccccc1CNC(=O)c1cc(N)n2nc(-c3cccnc3)nc2c1 [Example 87, 5-Amino-2-pyridin-3-yl-[1,2,4]triazolo[1,5-a]pyridine-7-carboxylic acid 2-methoxy-benzylamide] | 240 | 5.2 | 1260 | –
15 | Nc1cc(C(=O)NCc2ccccc2Cl)cc2nc(-c3cccs3)nn12 [Example 163, 5-Amino-2-thiophen-2-yl-[1,2,4]triazolo[1,5-a]pyridine-7-carboxylic acid 2-chloro-benzylamide] | 31.1 | 4.0 | 125 | –
16 | CCNC(=O)c1cc(N)n2nc(-c3nccs3)nc2c1 [Example 328, 5-Amino-2-thiazol-2-yl-[1,2,4]triazolo[1,5-a]pyridine-7-carboxylic acid ethylamide] | 31.7 | 39.1 | 1240 | –
17 | Nc1cc(C(=O)N2CCSCC2)cc2nc(-c3ccc(Br)o3)nn12 [Example 297, [5-Amino-2-(5-bromo-furan-2-yl)-[1,2,4]triazolo[1,5-a]pyridin-7-yl]-thiomorpholin-4-yl-methanone] | – | – | 253 | –
18 | Cc1ccc(-c2nc3cc(C(=O)N4CCCCC4)cc(N)n3n2)o1 [Example 28, [5-Amino-2-(5-methyl-furan-2-yl)-[1,2,4]triazolo[1,5-a]pyridin-7-yl]-piperidin-1-yl-methanone] | – | – | 696 | –
19 | Nc1cc(C(=O)N2CCCC2)cc2nc(-c3ccc(Br)o3)nn12 [Example 22, [5-Amino-2-(5-bromo-furan-2-yl)-[1,2,4]triazolo[1,5-a]pyridin-7-yl]-pyrrolidin-1-yl-methanone] | – | – | 548 | –
20 | Nc1cc(C(=O)N2CCCC2)cc2nc(-c3ccccn3)nn12 [Example 410, (5-Amino-2-pyridin-2-yl-[1,2,4]triazolo[1,5-a]pyridin-7-yl)-pyrrolidin-1-yl-methanone] | – | – | – | Ki [2]: 1450 nM
21 | Nc1cc(C(=O)N2CCCC2)cc2nc(-c3cccs3)nn12 [Example 128, (5-Amino-2-thiophen-2-yl-[1,2,4]triazolo[1,5-a]pyridin-7-yl)-pyrrolidin-1-yl-methanone] | – | – | 1480 | –
22 | CC1CCCCN1C(=O)c1cc(N)n2nc(-c3ccc(Br)o3)nc2c1 (centres unmarked) [Example 336, [5-Amino-2-(5-bromo-furan-2-yl)-[1,2,4]triazolo[1,5-a]pyridin-7-yl]-(2-methyl-piperidin-1-yl)-methanone] | – | – | 65.7 | –
23 | COC[C@@H]1CCCN1C(=O)c1cc(N)n2nc(-c3ccc(Br)o3)nc2c1 [Example 385, [5-Amino-2-(5-bromo-furan-2-yl)-[1,2,4]triazolo[1,5-a]pyridin-7-yl]-(S-2-methoxymethyl-pyrrolidin-1-yl)-methanone] | – | – | – | Ki [2]: 616 nM
24 | Nc1cc(C(=O)N2CCCC2)cc2nc(-c3ccco3)nn12 [Example 106, (5-Amino-2-furan-2-yl-[1,2,4]triazolo[1,5-a]pyridin-7-yl)-pyrrolidin-1-yl-methanone] | – | – | 1730 | –
25 | CC1CCCN(C(=O)c2cc(N)n3nc(-c4ccc(Br)o4)nc3c2)C1 (centres unmarked) [Example 295, [5-Amino-2-(5-bromo-furan-2-yl)-[1,2,4]triazolo[1,5-a]pyridin-7-yl]-(3,-methyl-piperidin-1-yl)-methanone] | – | – | 130 | –
26 | CCN(CCc1ccccn1)C(=O)c1cc(N)n2nc(-c3ccc(Br)o3)nc2c1 [Example 352, 5-Amino-2-(5-bromo-furan-2-yl)-[1,2,4]triazolo[1,5-a]pyridine-7-carboxylic acid ethyl-(2-pyridin-2-yl-ethyl)-amide] | – | – | 144 | –
27 | CN(CCc1ccccc1)C(=O)c1cc(N)n2nc(-c3ccc(Br)o3)nc2c1 [Example 306, 5-Amino-2-(5-bromo-furan-2-yl)-[1,2,4]triazolo[1,5-a]pyridine-7-carboxylic acid methyl-phenethyl-amide] | – | – | 87.8 | –
28 | CCN(CC)C(=O)C1CCCN(C(=O)c2cc(N)n3nc(-c4ccc(Br)o4)nc3c2)C1 (centres unmarked) [Example 356, 1-[5-Amino-2-(5-bromo-furan-2-yl)-[1,2,4]triazolo[1,5-a]pyridin-7-carbonyl]-piperidine-3-carboxylic acid diethylamide] | – | – | 1060 | –
29 | CN(C)C(=O)CN(C)C(=O)c1cc(N)n2nc(-c3ccc(Br)o3)nc2c1 [Example 384, 5-Amino-2-(5-bromo-furan-2-yl)-[1,2,4]triazolo[1,5-a]pyridine-7-carboxylic acid dimethylcarbamoylmethyl-methyl-amide] | – | – | – | Ki [2]: 711 nM
30 | Cc1ccc(-c2nc3cc(C(=O)N4CCCC4)cc(N)n3n2)o1 [Example 27, [5-Amino-2-(5-methyl-furan-2-yl)-[1,2,4]triazolo[1,5-a]pyridin-7-yl]-pyrrolidin-1-yl-methanone] | – | – | 940 | –
